Measurements taken from ChEMBL document CHEMBL1201862, “PubChem BioAssay data set” (2004).
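Where inhibition never reached the appropriate level, the endpoint shown equals the highest concentration tested. Otherwise, values were interpolated linearly from a five-concentration, 48-hour dose response in 96-well plates. GI50 marks 50% less growth.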 Calls of active or inactive are those of the source. Rule as the data show it: active = GI50 up to about 1.1 µM and inactive = higher.

Columns and labels:
Assay in all cases: NCI anticancer screen, dose series, 48 h
SK-MEL-28 = system: SK-MEL-28
UACC-257 = system: UACC-257
MDA-MB-231 = system: MDA-MB-231
SF-268 = system: SF-268
NCI-H23 = system: NCI-H23
NCI-H226 = system: NCI-H226
A549 = system: A549
SNB-75 = system: SNB-75
HCT-116 = system: HCT-116
NCI-H522 = system: NCI-H522
HOP-62 = system: HOP-62
OVCAR-8 = system: OVCAR-8
BT-549 = system: BT-549
HOP-92 = system: HOP-92
Malme-3M = system: Malme-3M
T47D = system: T47D
U-251 = system: U-251
MDA-N = system: MDA-N
UACC-62 = system: UACC-62
HL-60 = system: HL-60

Row | Compound | GI50 (SK-MEL-28) | GI50 (UACC-257) | GI50 (MDA-MB-231) | GI50 (SF-268) | GI50 (NCI-H23) | GI50 (NCI-H226) | GI50 (A549) | GI50 (SNB-75) | GI50 (HCT-116) | GI50 (NCI-H522) | GI50 (HOP-62) | GI50 (OVCAR-8) | GI50 (BT-549) | GI50 (HOP-92) | GI50 (Malme-3M) | GI50 (T47D) | GI50 (U-251) | GI50 (MDA-N) | GI50 (UACC-62) | GI50 (HL-60)
1 | C[C@]12CC[C@H]3[C@@H](CCC4=CC(=O)CC[C@@H]43)[C@@H]1CC[C@@H]2OC1(O)C(=O)c2ccccc2C1=O | > 100 µM (inactive) | 28.5 µM (inactive) | 87.3 µM (inactive) | 34.1 µM (inactive) | 27.1 µM (inactive) | > 100 µM (inactive) | > 100 µM (inactive) | 56.9 µM (inactive) | 14.5 µM (inactive) | 17.3 µM (inactive) | 36.6 µM (inactive) | 45.2 µM (inactive) | 66.8 µM (inactive) | > 100 µM (inactive) | 34 µM (inactive) | 36.7 µM (inactive) | 48.8 µM (inactive) | 17.6 µM (inactive) | 11.7 µM (inactive) | 
2 | Cc1n[nH]c(=O)c2cc(-c3ccccc3)[nH]c12 |  | 49.8 µM (inactive) | 40.8 µM (inactive) | 59.7 µM (inactive) | 84.1 µM (inactive) | 72.9 µM (inactive) | 49 µM (inactive) | 39.2 µM (inactive) | 52.6 µM (inactive) |  | > 100 µM (inactive) | 72.3 µM (inactive) | 91.4 µM (inactive) | > 100 µM (inactive) | 64.1 µM (inactive) | 27.5 µM (inactive) | 51.2 µM (inactive) | 73.3 µM (inactive) | 33.8 µM (inactive) | 54 µM (inactive)
3 | CC(C)C1OC23CCCCC2C(C#N)(C#N)C1(C#N)C(=N)O3 (stereo unspecified) | 27.4 µM (inactive) | 20.6 µM (inactive) | 19.6 µM (inactive) | 19.2 µM (inactive) | 26.1 µM (inactive) | 98.6 µM (inactive) | 71.8 µM (inactive) | 28.4 µM (inactive) | 16 µM (inactive) |  |  | 20.2 µM (inactive) | 18.8 µM (inactive) | 16.5 µM (inactive) | 16.8 µM (inactive) | 17.6 µM (inactive) | 17.4 µM (inactive) | 15.8 µM (inactive) | 20.6 µM (inactive) | 5.31 µM (inactive)
4 | OC1(c2ccc(Cl)cc2)c2ccc(CN3CCCC3)cc2C2=NCCN21 (stereo unspecified) | 10.7 µM (inactive) | 12.5 µM (inactive) | 13.9 µM (inactive) | 14.8 µM (inactive) | 16.9 µM (inactive) |  | 17.1 µM (inactive) | 3.16 µM (inactive) | 14.1 µM (inactive) |  | 15.6 µM (inactive) | 15.4 µM (inactive) | 8.77 µM (inactive) | 2.53 µM (inactive) | 11 µM (inactive) | 18.5 µM (inactive) | 14 µM (inactive) | 10.8 µM (inactive) | 14.7 µM (inactive) | 12.6 µM (inactive)
5 | O=C1/C(=C2\SCC(=O)N2c2ccccc2)SC(=S)N1c1ccccc1 | 35.9 µM (inactive) | 42.8 µM (inactive) | 20.6 µM (inactive) | 41.8 µM (inactive) | 72.6 µM (inactive) | 20.5 µM (inactive) | 31 µM (inactive) |  | 46.3 µM (inactive) |  |  | 41.4 µM (inactive) | 2.82 µM (inactive) | 23.3 µM (inactive) | 38.2 µM (inactive) | 51.2 µM (inactive) | 30.4 µM (inactive) | 44.2 µM (inactive) | 55 µM (inactive) | 78.5 µM (inactive)
6 | CN(C)CCNC(=O)c1cccc2c(NCCN(C)C)c3ccccc3nc12 | 13.7 µM (inactive) | 5.14 µM (inactive) | 2 µM (inactive) | 3.07 µM (inactive) | 2.33 µM (inactive) | 1.37 µM (inactive) | 1.91 µM (inactive) | 5.06 µM (inactive) | 1.48 µM (inactive) | 1.37 µM (inactive) | 3.19 µM (inactive) | 3.19 µM (inactive) | 7.59 µM (inactive) | 2.16 µM (inactive) | 3.85 µM (inactive) | 14.6 µM (inactive) | 2.69 µM (inactive) | 3.15 µM (inactive) | 4.55 µM (inactive) | 
7 | Nc1ncnc2c1ncn2CCCCC(=O)O | > 100 µM (inactive) | > 100 µM (inactive) | > 100 µM (inactive) | > 100 µM (inactive) | > 100 µM (inactive) | > 100 µM (inactive) | > 100 µM (inactive) | > 100 µM (inactive) | > 100 µM (inactive) | > 100 µM (inactive) | > 100 µM (inactive) | > 100 µM (inactive) | > 100 µM (inactive) | > 100 µM (inactive) | > 100 µM (inactive) | > 100 µM (inactive) | > 100 µM (inactive) | > 100 µM (inactive) | > 100 µM (inactive) | 
8 | COc1ccccc1C[C@@H]1OC2(C=CC(=O)CC2SC(=O)c2ccccc2)O[C@H]1Cc1ccccc1OC (stereo partly specified) | 1.75 µM (inactive) | 1.51 µM (inactive) | 2.64 µM (inactive) | 1.02 µM (active) | 2.03 µM (inactive) | 2.08 µM (inactive) | 2.9 µM (inactive) | 1.78 µM (inactive) | 0.241 µM (active) |  | 1.35 µM (inactive) | 0.216 µM (active) | 0.318 µM (active) | 1.64 µM (inactive) | 1.77 µM (inactive) | 1.6 µM (inactive) | 1.44 µM (inactive) | 1.51 µM (inactive) | 2.71 µM (inactive) | 1.16 µM (inactive)
9 | CCOC(=O)Nn1c(C)nnc1-c1ccccc1 |  | > 100 µM (inactive) | > 100 µM (inactive) | > 100 µM (inactive) | > 100 µM (inactive) | > 100 µM (inactive) | > 100 µM (inactive) |  | > 100 µM (inactive) | > 100 µM (inactive) |  | > 100 µM (inactive) | > 100 µM (inactive) | > 100 µM (inactive) | > 100 µM (inactive) | > 100 µM (inactive) | > 100 µM (inactive) | > 100 µM (inactive) | > 100 µM (inactive) | 
10 | O=C(O)c1c(Cl)c(Cl)c(Cl)c(Cl)c1C(=O)Nc1ccc2cn[nH]c2c1 | > 100 µM (inactive) | > 100 µM (inactive) | > 100 µM (inactive) | > 100 µM (inactive) | > 100 µM (inactive) | > 100 µM (inactive) | > 100 µM (inactive) | 74.8 µM (inactive) | > 100 µM (inactive) | > 100 µM (inactive) | 59.6 µM (inactive) | > 100 µM (inactive) | > 100 µM (inactive) | > 100 µM (inactive) | > 100 µM (inactive) | 74.3 µM (inactive) | > 100 µM (inactive) | > 100 µM (inactive) | > 100 µM (inactive) | 
11 | O=C1c2c(Br)sc(Br)c2[C@H]2OC(=S)N[C@@H]12 | 2.79 µM (inactive) | 7.08 µM (inactive) | 12.1 µM (inactive) | 3.27 µM (inactive) | 5.15 µM (inactive) | 17.1 µM (inactive) | 17.1 µM (inactive) | 16.1 µM (inactive) | 2.81 µM (inactive) | 1.69 µM (inactive) | 13.5 µM (inactive) | 3.5 µM (inactive) | 10 µM (inactive) | 11.9 µM (inactive) | 3.73 µM (inactive) | 12.1 µM (inactive) | 2.78 µM (inactive) | 5.04 µM (inactive) | 11.8 µM (inactive) | 
